Measured values published in US20250353891A1 (MEDIMMUNE LIMITED, priority 2022, published 2025).
Like-named read-outs stand apart in the source and are kept apart here. Starred links: 1 amine or outer side, 2 acyl side, 3 side chain; linkers in the order of their positions; H or OH if unused. Non-standard residues stand in square brackets, D forms with d. Residues, ends and D or L forms follow the SMILES beside them. Groups on a side chain read outwards from the residue. *: point of attachment. X1 = CC(C)(CCNC(=N)N)[C@H](N[*:1])C(=O)[*:2]; C20 diacid = O=C(O)CCCCCCCCCCCCCCCCCCC(=O)*; C18 diacid = O=C(O)CCCCCCCCCCCCCCCCC(=O)*; γGlu = O=C(O)[C@H](CCC(=O)[*:2])N[*:1]; Palmitoyl = CCCCCCCCCCCCCCCC(=O)*; αMeF = C[C@](N)(Cc1ccccc1)C(=O)O; PEG2 = NCCOCCOCCC(=O)O; AEEA = NCCOCCOCC(=O)O; Aib = CC(C)(N)C(=O)O

What was measured:
[1] = biological target: human GLP-1 receptor (hGLP-1R) (Homo sapiens, UniProt P43220); assay: cAMP production (HTRF) in CHO cells expressing hGLP-1R; type: cell-based; design: expressed in transfected cells; settings: for % Relative Potency Ratio: % GLP-1R activity relative to GLP-1 / % GlucR activity relative to glucagon; for EC50: geometric mean, read-out: hGLP-1R EC50
In short: (§1)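 Read-out: HTRF cAMP (anti-cAMP cryptate donor, cAMP-d2 acceptor in conjugate/lysis buffer), converted to % Delta F and fitted by 4-parameter logistic for EC50. Cell densities were 1×10^5 cells/mL (hGLP-1R) or 2×10^5 cells/mL (hGCGR). Stimulation lasted 30 min at room temperature.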

[2] = biological target: human glucagon receptor (hGCGR) (Homo sapiens, UniProt P47871); assay: cAMP production (HTRF) in CHO cells expressing hGCGR; type: cell-based; design: expressed in transfected cells; settings: geometric mean, read-out: hGluc-R EC50
In short: as §1

[3] = Table 6, peptides modified at position 17, cAMP in CHO hGLP-1R cells
[4] = Table 6, peptides modified at position 17, cAMP in CHO hGCGR cells

Sequence of human glucagon receptor (hGCGR) (P47871 26-477): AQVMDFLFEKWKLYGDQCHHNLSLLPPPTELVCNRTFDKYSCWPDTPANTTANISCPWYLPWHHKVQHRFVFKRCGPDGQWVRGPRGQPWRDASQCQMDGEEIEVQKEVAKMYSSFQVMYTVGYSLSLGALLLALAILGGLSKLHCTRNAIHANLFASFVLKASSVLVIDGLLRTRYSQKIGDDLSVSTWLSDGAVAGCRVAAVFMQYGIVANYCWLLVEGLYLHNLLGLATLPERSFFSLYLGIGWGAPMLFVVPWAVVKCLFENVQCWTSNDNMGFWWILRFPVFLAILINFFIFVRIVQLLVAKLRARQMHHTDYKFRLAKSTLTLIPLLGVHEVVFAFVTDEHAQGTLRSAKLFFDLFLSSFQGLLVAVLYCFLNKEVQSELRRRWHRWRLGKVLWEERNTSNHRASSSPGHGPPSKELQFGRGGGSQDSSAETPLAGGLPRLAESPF
Sequence of human GLP-1 receptor (hGLP-1R) (P43220 24-463): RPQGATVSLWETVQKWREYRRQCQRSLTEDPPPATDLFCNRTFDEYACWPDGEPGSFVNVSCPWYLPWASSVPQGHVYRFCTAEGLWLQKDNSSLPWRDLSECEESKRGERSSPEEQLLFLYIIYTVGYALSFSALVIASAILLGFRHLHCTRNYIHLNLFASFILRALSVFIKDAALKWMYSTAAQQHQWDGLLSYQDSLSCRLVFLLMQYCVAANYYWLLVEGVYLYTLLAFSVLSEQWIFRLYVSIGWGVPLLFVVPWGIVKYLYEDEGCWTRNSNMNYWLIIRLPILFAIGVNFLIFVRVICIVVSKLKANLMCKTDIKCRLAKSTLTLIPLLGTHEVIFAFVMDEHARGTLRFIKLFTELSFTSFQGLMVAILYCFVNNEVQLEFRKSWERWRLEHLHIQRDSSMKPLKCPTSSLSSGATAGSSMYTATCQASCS

Row | Compound | % Relative Potency Ratio [1] | EC50 ([1]; cAMP, CHO cells, 0.1% BSA) [nM] | EC50 ([2]; cAMP, CHO cells, 0.1% BSA) [nM] | EC50 [1, 3] [nM] | % Relative Potency Ratio ([1]; Table 6) | EC50 [2, 4] [nM]
1 | CC[C@H](C)[C@H](NC(=O)C(C)(C)NC(=O)[C@H](CCCCNC(=O)COCCOCCNC(=O)COCCOCCNC(=O)CC[C@H](NC(=O)CCCCCCCCCCCCCCCCC(=O)O)C(=O)O)NC(=O)[C@@H](NC(=O)[C@](C)(Cc1ccccc1)NC(=O)[C@H](CC(=O)O)NC(=O)[C@H](CCC(N)=O)NC(=O)[C@H](C)NC(=O)[C@H](C)NC(=O)[C@H](CCC(N)=O)NC(=O)[C@H](CO)NC(=O)[C@H](CC(=O)O)NC(=O)[C@H](CC(C)C)NC(=O)[C@](C)(Cc1ccccc1)NC(=O)[C@H](CCCCN)NC(=O)[C@H](CO)NC(=O)[C@@H](NC(=O)[C@H](CC(=O)O)NC(=O)[C@H](CO)NC(=O)[C@@H](NC(=O)[C@](C)(Cc1ccccc1)NC(=O)[C@H](CO)NC(=O)CNC(=O)[C@H](Cc1c[nH]cn1)NC(=O)C(C)(C)NC(=O)[C@@H](N)Cc1c[nH]cn1)[C@@H](C)O)C(C)C)C(C)C)C(=O)N[C@@H](C)C(=O)N[C@@H](CC(N)=O)C(=O)N[C@H](C(N)=O)[C@@H](C)O [Peptide 383] (H-H[Aib]HGS[αMeF]TSDVSK[αMeF]LDSQAAQD[αMeF]VK([AEEA-AEEA-γGlu-C18 diacid])[Aib]IANT-NH2; N-terminus assumed) | 2.3 | 0.197 | 0.232 |  |  | 
2 | CC[C@H](C)[C@H](NC(=O)C(C)(C)NC(=O)[C@H](CCCCNC(=O)COCCOCCNC(=O)COCCOCCNC(=O)CC[C@H](NC(=O)CC[C@H](NC(=O)CCCCCCCCCCCCCCCCCCC(=O)O)C(=O)O)C(=O)O)NC(=O)[C@@H](NC(=O)[C@](C)(Cc1ccccc1)NC(=O)[C@H](CC(=O)O)NC(=O)[C@H](CCC(N)=O)NC(=O)[C@H](C)NC(=O)[C@H](C)NC(=O)[C@H](CCC(N)=O)NC(=O)[C@H](CO)NC(=O)[C@H](CC(=O)O)NC(=O)[C@H](CC(C)C)NC(=O)[C@](C)(Cc1ccccc1)NC(=O)[C@H](CCCCN)NC(=O)[C@H](CO)NC(=O)[C@@H](NC(=O)[C@H](CC(=O)O)NC(=O)[C@H](CO)NC(=O)[C@@H](NC(=O)[C@](C)(Cc1ccccc1)NC(=O)[C@H](CO)NC(=O)CNC(=O)[C@H](Cc1c[nH]cn1)NC(=O)C(C)(C)NC(=O)[C@@H](N)Cc1c[nH]cn1)[C@@H](C)O)C(C)C)C(C)C)C(=O)N[C@@H](C)C(=O)N[C@@H](CC(N)=O)C(=O)N[C@H](C(N)=O)[C@@H](C)O [Peptide 384] (H-H[Aib]HGS[αMeF]TSDVSK[αMeF]LDSQAAQD[αMeF]VK([AEEA-AEEA-γGlu-γGlu-C20 diacid])[Aib]IANT-NH2; N-terminus assumed) | 3.1 | 0.797 | 1.24 |  |  | 
3 | CCCCCCCCCCCCCCCC(=O)N[C@@H](CCC(=O)N[C@@H](CCC(=O)NCCOCCOCCC(=O)NCCOCCOCCC(=O)NCCCC[C@H](NC(=O)[C@H](CCCCN)NC(=O)[C@H](CO)NC(=O)[C@@H](NC(=O)[C@H](CC(=O)O)NC(=O)[C@H](CO)NC(=O)[C@@H](NC(=O)[C@](C)(Cc1ccccc1)NC(=O)[C@H](CO)NC(=O)CNC(=O)[C@H](CCC(N)=O)NC(=O)[C@H](CO)NC(=O)[C@@H](N)Cc1c[nH]cn1)[C@@H](C)O)C(C)C)C(=O)N[C@@H](CC(C)C)C(=O)N[C@@H](CC(=O)O)C(=O)N[C@@H](CO)C(=O)N[C@H](C(=O)N[C@@H](C)C(=O)N[C@@H](C)C(=O)N[C@@H](CCC(N)=O)C(=O)N[C@@H](CC(=O)O)C(=O)N[C@@](C)(Cc1ccccc1)C(=O)N[C@H](C(=O)N[C@@H](CCC(=O)O)C(=O)NC(C)(C)C(=O)N[C@@H](CC(C)C)C(=O)N[C@@H](C)C(=O)N[C@@H](CC(N)=O)C(=O)N[C@H](C(N)=O)[C@@H](C)O)C(C)C)C(C)(C)CCNC(=N)N)C(=O)O)C(=O)O [Peptide 400, HSQGS(αMePhe)TSDVSKK((PEG)2-(PEG)2-γE-γE-Palmitoyl)13LDS(β-dimethylArg)AAQD(αMePhe)VE(Aib)LANT-amide] (H-HSQGS[αMeF]TSDVSKK([PEG2-PEG2-γGlu-γGlu-Palmitoyl])LDS[X1]AAQD[αMeF]VE[Aib]LANT-NH2; N-terminus assumed) | 16.7 | 0.00127 | 0.0107 |  |  | 
4 | CC[C@H](C)[C@H](NC(=O)C(C)(C)NC(=O)[C@H](CCC(N)=O)NC(=O)[C@@H](NC(=O)[C@](C)(Cc1ccccc1)NC(=O)[C@H](CC(=O)O)NC(=O)[C@H](CCC(N)=O)NC(=O)[C@H](C)NC(=O)[C@H](C)NC(=O)[C@H](CCCNC(=N)N)NC(=O)[C@H](CO)NC(=O)[C@H](CC(=O)O)NC(=O)[C@H](CC(C)C)NC(=O)[C@H](CCCCNC(=O)COCCOCCNC(=O)COCCOCCNC(=O)CC[C@H](NC(=O)CCCCCCCCCCCCCCCCC(=O)O)C(=O)O)NC(=O)[C@H](CCCCN)NC(=O)[C@H](CO)NC(=O)[C@@H](NC(=O)[C@H](CC(=O)O)NC(=O)[C@H](CO)NC(=O)[C@@H](NC(=O)[C@](C)(Cc1ccccc1)NC(=O)[C@H](CO)NC(=O)CNC(=O)[C@H](Cc1c[nH]cn1)NC(=O)C(C)(C)NC(=O)[C@@H](N)Cc1c[nH]cn1)[C@@H](C)O)C(C)C)C(C)C)C(=O)N[C@@H](C)C(=O)N[C@@H](CC(N)=O)C(=O)N[C@H](C(N)=O)[C@@H](C)O [Peptide 406] (H-H[Aib]HGS[αMeF]TSDVSKK([AEEA-AEEA-γGlu-C18 diacid])LDSRAAQD[αMeF]VQ[Aib]IANT-NH2; N-terminus assumed) | 31.6 | 0.458 | 7.31 |  |  | 
5 | CC(C)C[C@H](NC(=O)[C@H](Cc1c[nH]c2ccccc12)NC(=O)[C@H](CCCNC(=N)N)NC(=O)[C@@H](NC(=O)[C@H](Cc1ccccc1)NC(=O)[C@H](CC(=O)O)NC(=O)[C@H](CCC(N)=O)NC(=O)[C@H](C)NC(=O)[C@H](CCCNC(=N)N)NC(=O)[C@H](CCCCNC(=O)COCCOCCNC(=O)COCCOCCNC(=O)CC[C@H](NC(=O)CC[C@H](NC(=O)CCCCCCCCCCCCCCCCCCC(=O)O)C(=O)O)C(=O)O)NC(=O)[C@@H](NC(=O)[C@H](CC(=O)O)NC(=O)[C@H](CC(C)C)NC(=O)[C@](C)(Cc1ccccc1)NC(=O)[C@H](CCCCN)NC(=O)[C@H](CO)NC(=O)[C@@H](NC(=O)[C@H](CC(=O)O)NC(=O)[C@H](CO)NC(=O)[C@@H](NC(=O)[C@H](Cc1ccccc1)NC(=O)[C@@H](NC(=O)CNC(=O)[C@H](CCC(N)=O)NC(=O)C(C)(C)NC(=O)[C@@H](N)Cc1c[nH]cn1)[C@@H](C)O)[C@@H](C)O)C(C)C)[C@@H](C)O)C(C)C)C(=O)N[C@@H](CCC(=O)O)C(=O)N[C@@H](C)C(=O)NC(C)(C)C(=O)NCC(=O)O [Peptide 408] (H-H[Aib]QGTFTSDVSK[αMeF]LDTK([AEEA-AEEA-γGlu-γGlu-C20 diacid])RAQDFVRWLEA[Aib]G-OH; N-terminus assumed) |  |  |  | 0.37 | 4.4 | 0.828
6 | CC(C)C[C@H](NC(=O)[C@H](Cc1c[nH]c2ccccc12)NC(=O)[C@H](C)NC(=O)[C@@H](NC(=O)[C@H](Cc1ccccc1)NC(=O)[C@H](CC(=O)O)NC(=O)[C@H](CCCNC(=N)N)NC(=O)[C@H](C)NC(=O)[C@H](CCCNC(=N)N)NC(=O)[C@H](CCCCNC(=O)COCCOCCNC(=O)COCCOCCNC(=O)CC[C@H](NC(=O)CCCCCCCCCCCCCCCCC(=O)O)C(=O)O)NC(=O)[C@@H](NC(=O)[C@H](CC(=O)O)NC(=O)[C@H](CC(C)C)NC(=O)[C@](C)(Cc1ccccc1)NC(=O)[C@H](CCCCN)NC(=O)[C@H](CO)NC(=O)[C@@H](NC(=O)[C@H](CC(=O)O)NC(=O)[C@H](CO)NC(=O)[C@@H](NC(=O)[C@H](Cc1ccccc1)NC(=O)[C@@H](NC(=O)CNC(=O)[C@H](CCC(N)=O)NC(=O)C(C)(C)NC(=O)[C@@H](N)Cc1c[nH]cn1)[C@@H](C)O)[C@@H](C)O)C(C)C)[C@@H](C)O)C(C)C)C(=O)N[C@@H](CC(C)C)C(=O)NC(C)(C)C(=O)N[C@H](C(=O)N[C@@H](CCC(=O)O)C(=O)O)[C@@H](C)O [Peptide 409] (H-H[Aib]QGTFTSDVSK[αMeF]LDTK([AEEA-AEEA-γGlu-C18 diacid])RARDFVAWLL[Aib]TE-OH; N-terminus assumed) |  |  |  | 0.0227 | 17.7 | 0.203
7 | CC(C)C[C@H](NC(=O)[C@H](Cc1c[nH]c2ccccc12)NC(=O)[C@H](C)NC(=O)[C@@H](NC(=O)[C@H](Cc1ccccc1)NC(=O)[C@H](CC(=O)O)NC(=O)[C@H](CCCNC(=N)N)NC(=O)[C@H](C)NC(=O)[C@H](CCCNC(=N)N)NC(=O)[C@H](CCCCNC(=O)COCCOCCNC(=O)COCCOCCNC(=O)CC[C@H](NC(=O)CCCCCCCCCCCCCCCCCCC(=O)O)C(=O)O)NC(=O)[C@@H](NC(=O)[C@H](CC(=O)O)NC(=O)[C@H](CC(C)C)NC(=O)[C@](C)(Cc1ccccc1)NC(=O)[C@H](CCCCN)NC(=O)[C@H](CO)NC(=O)[C@@H](NC(=O)[C@H](CC(=O)O)NC(=O)[C@H](CO)NC(=O)[C@@H](NC(=O)[C@H](Cc1ccccc1)NC(=O)[C@@H](NC(=O)CNC(=O)[C@H](CCC(N)=O)NC(=O)C(C)(C)NC(=O)[C@@H](N)Cc1c[nH]cn1)[C@@H](C)O)[C@@H](C)O)C(C)C)[C@@H](C)O)C(C)C)C(=O)N[C@@H](CC(C)C)C(=O)NC(C)(C)C(=O)N[C@H](C(=O)N[C@@H](CCC(=O)O)C(=O)O)[C@@H](C)O [Peptide 410] (H-H[Aib]QGTFTSDVSK[αMeF]LDTK([AEEA-AEEA-γGlu-C20 diacid])RARDFVAWLL[Aib]TE-OH; N-terminus assumed) |  |  |  | 0.078 | 11.5 | 0.455
